In patent US20220218678A1, “USE OF 1-PHENYL-2-PYRIDINYL ALKYL ALCOHOL DERIVATIVES FOR TREATING CYSTIC FIBROSIS” (CHIESI FARMACEUTICI S.p.A., priority 2017, published 2022):

Columns and labels:
CFTR channel = target: T1, CFTR channel (Homo sapiens, UniProt P13569); test: Transepithelial electrical resistance (TEER) assay on 16HBE14o− bronchial epithelial cells; assay type: cell-based; conditions: 16HBE14o− cells, 10, 30 and 60 minutes; CHF6001 30 nM, Roflumilast 50 nM
T1 construct: the TEER assay was performed with these agents on 16HBE14o− bronchial epithelial cells (BEC); endogenous in cells; host or cells: 16HBE14o− human bronchial epithelial cell line (provided by P. Davis)

CFTR [1] = target: T2, CFTR (Homo sapiens, UniProt P13569, DEL508-508); test: Flow cytometry, presence of CFTR epitopes on CFBE41o− cells; assay type: cell-based; conditions: 24 h of treatment, CHF6001 30 nM, Roflumilast 50 nM
T2 construct: cells expressing endogenous ΔF508-CFTR; endogenous in cells; host or cells: CFBE41o− human CF bronchial epithelial cell line (gift from D. C. Gruenert), homozygous ΔF508
Experimental: CFBE41o− cells were seeded 1.5×10^5 cells/well into a 6 multi-well dish in EMEM medium, supplemented with 10% FBS and 1 mM L-glutamine, and maintained in incubator at 37° C. overnight. The day after, the cells were treated with different agents, as follows: VRT809 (5 μM), CHF6001 (30 nM), Roflumilast (50 nM) or the vehicle DMSO. After 24 h cells were harvested.
Specifically for detection of the extracellular domain of CFTR, the cells were washed with PBS 1× and successively stained with the anti-CFTR monoclonal antibody CF3 (Abeam), suitable for detection of the extracellular domain of CFTR. After washing, the secondary antibody goat anti-mouse (μ-chain) conjugated with Alexa Fluor-488 (Invitrogen, Carlsbad, U.S.A.) was added (1 μg for 10^6 cells) for 30 min on ice. […]
Finally cells were washed twice and then analysed at MACSQuant Analyzer (Miltenyi Biotech, Cologne, Germany), and data were analysed with FlowJo Software (Tree Star, Inc).
The percentage of events with background noise (determined with IgM isotype or peptide signal) was subtracted and the result was expressed as %-values of CFTR positive cells. Geometrical means of the signal in the green channel were also obtained and a ratio between the signals obtained with the extracellular-domain specific antibody CF3 and with the polyclonal antibody (Alomone), respectively, with respect to the baseline signal was calculated (MFI). […]

CFTR [2] = test: Immunofluorescence staining of CFTR in CFBE41o− cells; assay type: cell-based, human; conditions: CFBE41o− cells treated for 24 h, different concentrations
Experimental: CFBE41o− and 16HBE14o− cells, respectively, were seeded on a glass slide and, after exposure to agent or vehicle, were washed twice with PBS 1× and fixed with paraformaldehyde 4% (PFA) for 30 min and stored in PBS 1× at 4° C. until immunostaining. The fixed cells were washed twice with PBS 1×, and treated for 3 minutes with […] NH4Cl at room temperature in order to quench the aldehyde group. After another washing step, the cells were permeabilized with TRITON X100 0.1% for 5 minutes and were blocked with a solution of 1% BSA for 30 minutes. The anti-CFTR antibody M3A7, raised against an epitope corresponding to residues 1197-1480 of human CFTR (Santa Cruz) was added at 1:100 dilution for 1 hour, then the cells were stained with secondary antibody anti IgG1 488 (1:1000, Santa Cruz) and Rhodamine Phalloidine (1:500) for another hour. Finally, the cells were subjected to DAPI (Sigma Aldrich) staining (1:2000) for 1 hour at RT, then the slides were analyzed by Leica DM6000M microscope with a 40× objective. Images were processed for brightness and contrast with Adobe Photoshop.
FIG. 6: Immunofluorescence staining performed on CFBE41o− cells treated for 24 h with VX809+VX770, CHF6001 and Roflumilast at different concentrations or vehicle (DMSO).

[3] = diarrhea, weight loss, nausea, headache, insomnia and others; cited from earlier work

T1 sequence (P13569 whole entry): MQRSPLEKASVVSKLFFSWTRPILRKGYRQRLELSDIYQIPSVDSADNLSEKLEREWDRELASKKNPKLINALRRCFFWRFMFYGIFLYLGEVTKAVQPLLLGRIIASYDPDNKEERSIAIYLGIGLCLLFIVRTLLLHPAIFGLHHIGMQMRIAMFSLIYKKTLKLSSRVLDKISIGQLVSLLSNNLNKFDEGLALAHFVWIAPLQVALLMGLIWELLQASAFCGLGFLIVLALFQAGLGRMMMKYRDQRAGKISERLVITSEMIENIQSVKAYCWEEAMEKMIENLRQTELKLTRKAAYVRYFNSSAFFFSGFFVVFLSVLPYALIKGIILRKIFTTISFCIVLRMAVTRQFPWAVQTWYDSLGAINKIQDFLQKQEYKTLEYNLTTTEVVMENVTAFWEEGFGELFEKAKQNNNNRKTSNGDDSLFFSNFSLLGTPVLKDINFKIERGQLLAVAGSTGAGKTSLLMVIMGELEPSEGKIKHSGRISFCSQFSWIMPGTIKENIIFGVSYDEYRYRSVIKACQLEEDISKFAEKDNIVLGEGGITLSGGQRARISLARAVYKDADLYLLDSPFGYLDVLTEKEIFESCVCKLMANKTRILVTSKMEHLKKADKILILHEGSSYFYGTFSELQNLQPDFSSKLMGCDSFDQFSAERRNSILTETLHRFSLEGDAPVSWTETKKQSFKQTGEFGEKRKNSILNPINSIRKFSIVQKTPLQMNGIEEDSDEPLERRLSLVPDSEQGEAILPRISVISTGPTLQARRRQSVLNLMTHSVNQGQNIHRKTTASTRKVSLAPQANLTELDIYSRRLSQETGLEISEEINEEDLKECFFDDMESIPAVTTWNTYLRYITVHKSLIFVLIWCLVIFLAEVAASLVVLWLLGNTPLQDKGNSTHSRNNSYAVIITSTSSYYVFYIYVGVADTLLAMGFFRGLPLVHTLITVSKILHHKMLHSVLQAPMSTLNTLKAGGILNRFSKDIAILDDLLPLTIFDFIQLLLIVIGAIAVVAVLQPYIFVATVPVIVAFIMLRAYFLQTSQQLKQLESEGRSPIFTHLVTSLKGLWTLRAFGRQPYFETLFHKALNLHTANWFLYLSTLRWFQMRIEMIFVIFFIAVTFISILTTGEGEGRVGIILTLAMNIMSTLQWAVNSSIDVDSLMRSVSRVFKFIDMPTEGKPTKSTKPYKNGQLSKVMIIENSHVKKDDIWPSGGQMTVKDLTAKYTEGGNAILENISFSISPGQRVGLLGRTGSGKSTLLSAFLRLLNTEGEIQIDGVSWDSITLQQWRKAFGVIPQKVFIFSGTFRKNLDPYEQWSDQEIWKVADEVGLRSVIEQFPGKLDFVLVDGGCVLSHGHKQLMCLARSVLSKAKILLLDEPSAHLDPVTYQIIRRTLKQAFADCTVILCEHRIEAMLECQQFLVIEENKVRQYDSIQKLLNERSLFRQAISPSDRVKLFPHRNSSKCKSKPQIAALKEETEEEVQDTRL
T2 sequence (P13569 with tags, fused parts or gaps DEL508-508): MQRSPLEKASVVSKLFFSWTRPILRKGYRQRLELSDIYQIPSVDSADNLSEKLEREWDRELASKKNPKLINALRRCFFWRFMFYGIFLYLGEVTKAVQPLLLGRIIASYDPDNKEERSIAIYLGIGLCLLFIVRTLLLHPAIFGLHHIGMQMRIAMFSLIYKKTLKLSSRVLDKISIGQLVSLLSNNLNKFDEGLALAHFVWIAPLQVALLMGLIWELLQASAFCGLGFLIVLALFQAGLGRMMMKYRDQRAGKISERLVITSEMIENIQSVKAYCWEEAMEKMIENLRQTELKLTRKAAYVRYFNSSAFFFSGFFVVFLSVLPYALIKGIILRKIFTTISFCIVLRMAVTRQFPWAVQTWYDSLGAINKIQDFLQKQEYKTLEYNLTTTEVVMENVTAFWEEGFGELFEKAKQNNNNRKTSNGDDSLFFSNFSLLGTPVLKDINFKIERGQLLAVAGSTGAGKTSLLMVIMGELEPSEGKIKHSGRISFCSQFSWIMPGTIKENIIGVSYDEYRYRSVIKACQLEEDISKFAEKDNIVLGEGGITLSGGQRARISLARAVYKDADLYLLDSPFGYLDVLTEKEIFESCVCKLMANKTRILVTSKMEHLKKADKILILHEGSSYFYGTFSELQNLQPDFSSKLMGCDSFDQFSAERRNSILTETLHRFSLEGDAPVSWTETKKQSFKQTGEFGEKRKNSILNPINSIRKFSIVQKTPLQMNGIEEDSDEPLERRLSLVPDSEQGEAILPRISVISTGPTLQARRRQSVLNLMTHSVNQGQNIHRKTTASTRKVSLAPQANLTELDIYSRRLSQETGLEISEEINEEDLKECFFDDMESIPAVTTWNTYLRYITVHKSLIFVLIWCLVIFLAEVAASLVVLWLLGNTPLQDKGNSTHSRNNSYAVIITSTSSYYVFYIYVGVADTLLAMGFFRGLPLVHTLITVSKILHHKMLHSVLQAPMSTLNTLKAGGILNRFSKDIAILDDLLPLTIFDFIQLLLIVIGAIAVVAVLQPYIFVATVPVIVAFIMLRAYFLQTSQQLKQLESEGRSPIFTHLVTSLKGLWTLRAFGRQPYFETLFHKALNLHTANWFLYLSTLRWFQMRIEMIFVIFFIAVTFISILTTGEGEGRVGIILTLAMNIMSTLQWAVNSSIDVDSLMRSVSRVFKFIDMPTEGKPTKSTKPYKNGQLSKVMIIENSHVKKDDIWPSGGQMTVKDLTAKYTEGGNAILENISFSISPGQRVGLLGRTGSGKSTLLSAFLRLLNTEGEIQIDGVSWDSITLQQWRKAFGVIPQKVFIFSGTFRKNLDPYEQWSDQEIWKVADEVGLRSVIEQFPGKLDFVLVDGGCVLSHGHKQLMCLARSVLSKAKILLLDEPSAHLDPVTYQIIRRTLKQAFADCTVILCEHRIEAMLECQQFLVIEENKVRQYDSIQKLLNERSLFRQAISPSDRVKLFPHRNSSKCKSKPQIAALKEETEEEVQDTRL

SMILES | trans-epithelial electric resistance normalized to DMSO (set to 100%) (CFTR channel) | presence of CFTR epitopes (CF3 extracellular, Alomone intracellular) (CFTR [1]) | presence of CFTR by immunofluorescence (CFTR [2]) | frequency of common adverse effects in subjects [3]
CS(=O)(=O)Nc1ccc(C(=O)OC(Cc2c(Cl)c[n+]([O-])cc2Cl)c2ccc(OC(F)F)c(OCC3CC3)c2)cc1OCC1CC1 (stereo not shown) [CHF6001, 3-Cyclopropylmethoxy-4-methanesulfonylamino-benzoic acid 1-(3-cyclopropylmethoxy-4-difluoromethoxy-phenyl)-2-(3,5-dichloro-1-oxy-pyridin-4-yl)-ethyl ester] | decrease the electric resistance | restore the presence of CFTR epitopes | increase the presence of CFTR | –
O=C(Nc1c(Cl)cncc1Cl)c1ccc(OC(F)F)c(OCC2CC2)c1 [Roflumilast, 3-cyclo-propylmethoxy-4-difluoromethoxy-N-[3,5-di-chloropyrid-4-yl]-benzamide] | decrease the electric resistance | restore the presence of CFTR epitopes | increase the presence of CFTR | 1-10%
